Data taken from patent publication US20260364175A1, “COMPOSITIONS FOR DRUG ADMINISTRATION” (Aegis Therapeutics, LLC, priority 2018, published 2026).
Entries after “also recorded” stand apart in the source; their conditions may differ.

How the values were obtained:
[1] = fast-dispersing tablets 50 mg with 1% to 2% alkylsaccharide
[2] = system: Escherichia coli (ATCC No. 8739); assay: Antibacterial activity, log reduction of cfu; format: cell-based; settings: 0.2%; day 28
Excerpt: (§1) The viable microorganisms used in the invention were not more than five passages removed from the original ATCC culture. As described herein, one passage is defined as the transfer of organisms from an established culture to fresh medium and all transfers are counted.
(§2) Cultures received from the ATCC are resuscitated according to the directions provided by the ATTC. Cells grown in broth were pelleted by centrifugation, resuspended in 1/20th the volume of fresh maintenance broth, and combined with an equal volume of 20% (v/v in water) sterile glycerol. Cells grown on agar were scraped from the surface into the maintenance broth also containing 10% glycerol broth. Small aliquots of the suspension were dispensed into sterile vials and the vials were stored in liquid nitrogen or in a mechanical freezer at a temperature no higher than about −50 °C. When a fresh seed-stock vial was required, it was removed and used to inoculate a series of working stock cultures. These working stock cultures were then used periodically (each day in the case of bacteria and yeast) to start the inoculum culture.
(§3) The culture conditions for the inoculum culture is substantially as described in Table IV. For example, suitable media can include but is not limited to, Soybean-Casein Digest or Sabouraud Dextrose Agar Medium. […]
(§4) The suspension should be refrigerated if it is not used within 2 hours. To confirm the initial cfu per mL estimate, the number of cfu per mL in each suspension was determined using the conditions of media and microbial recovery incubation times listed in Table IV (e.g., from about 3 to about 7 days). This value serves to calibrate the size of inoculum used in the test. The bacterial and yeast suspensions were used within 24 hours of harvest; whereas the fungal preparation can be stored under refrigeration for up to 7 days.
(§5) To determine which alkylglycoside formulations have antibacterial activity, the formulations were prepared in phosphate buffered saline (PBS) at pH 7. As a source of nutrition, either 1.5 mg/mL bovine serum albumin (BSA; see Tables V and VI) or 1 mg/mL of PYY was added (see Table VII) to the medium. BSA (CAS Number: 9048-46-8) was obtained from Sigma-Aldrich, St. Louis, MO, USA, n-dodecyl-4-O-α-D-glucopyranosyl-β-D-glucopyranoside and n-tetradecyl-4-O-α-D-glucopyranosyl-β-D-glucopyranoside were obtained from Anatrace Inc., Maumee, OH, USA, and PYY was obtained from Bachem California Inc., Torrance, CA, USA.
(§6) Antibacterial activity of the alkylglycosides were conducted in four sterile, capped bacteriological containers of suitable size into which a sufficient volume of alkylglycoside solution had been transferred. Each container was inoculated with one of the prepared and standardized inoculums and mixed. The volume of the suspension inoculum was between about 0.5% and about 1.0% of the volume of the alkylglycoside solution. […]. To determine the level of inhibition of growth, or reduction of growth based on a logarithmic scale, the initial concentration of viable microorganisms in each test preparation was estimated based on the concentration of microorganisms in each of the standardized inoculum as determined by the plate-count method. The inoculated containers were then incubated at about 22.5 °C±2.5. The growth or non-growth of the microorganisms in each culture/container were again determined at day 14 and day 28. The number of cfu present in each calculation was determined by the plate-count procedure standard in the art for the applicable intervals. The change in the orders of magnitude of bacterium and/or fungi was then determined by subtracting the first calculated log 10 values of the concentrations of cfu per mL present at the start or beginning (e.g., day 0), from the log 10 values of the concentration of cfu per mL for each microorganism at the applicable test intervals (e.g., day 14 and day 28; see Tables V, VI and VII).

[3] = system: Staphylococcus aureus (ATCC No. 6538); assay: Antibacterial activity, log reduction of cfu; format: cell-based
Excerpt: as §1, §2, §3, §4, §5, §6

[4] = system: Aspergillus niger (ATCC No. 16404); assay: Antimicrobial activity, log reduction of cfu; format: cell-based
Excerpt: as §1, §2, §3, §4, §5, §6

[5] = system: Candida albicans (ATCC No. 10231); assay: Antimicrobial activity, log reduction of cfu; format: cell-based
Excerpt: as §1, §2, §3, §4, §5, §6

blood glucose [6] = assay: Ocular administration of insulin plus absorption enhancer, blood glucose in anesthetized rats; format: in vivo, rat (male Sprague-Dawley)
human nasal epithelium = assay: Nasal mucosa irritation
blood glucose [7] = assay: Insulin plus tetradecylmaltoside as eye drops then nose drops, blood glucose in rats; format: in vivo, rat
Excerpt: Tetradecylmaltoside (TDM) in combination with insulin also produced a drop in blood D-glucose levels when administered in the form of a drop intranasally as well as via a drop by the ocular route. […] Thus, intranasal delivery and administration of the alkyl saccharide with drug results in lowering of blood glucose levels.

clinical = settings: human, in vivo
[8] = 10 mg fast-dispersing tablet with alkylsaccharide, buccal
[9] = whole-swallowed tablet, oral; cited from earlier work
[10] = Raloxifene pharmacokinetics; format: in vivo
Procedure: The recommended dosage is one 60 mg tablet daily. […]. […].

[11] = cited from earlier work
blood glucose [12] = assay: Ocular administration of glucagon plus surfactant, blood glucose in rats; format: in vivo, rat; settings: eye drops, 0.5% surfactant plus glucagon (30 μg)
blood glucose [13] = settings: previous studies; cited from earlier work
[14] = cited from earlier work; remark: listed apart in the source
[15] = Oral phenylephrine tablet bioavailability in a canine model; format: in vivo, dog; settings: compressed tablets
Procedure: In a canine model, subjects were dosed orally with various phenylephrine (PE) tablet formulations, and blood samples were taken to determine the rate of parent phenyl ethyl phenylephrine absorption. Blood levels of parent phenylephrine were measured. Three subject groups were created with each alkylsaccharide test group containing five subjects in each test group. All subject groups received 10 mg of phenylephrine as a single tablet. Each subject was in the fasting state for overnight and two hours post dose. Blood samples were taken at pre-dose, 5, 10, 15, 30, 45 min., 1, 2, and 3 hours.
Comparator was the standard 30 mg (total weight including excipients) phenylephrine tablet was no absorption enhancer. Group number 2 tablets contain the alkylsaccharide designated A3, which is n-dodecyl-beta-D-maltoside in the amounts of 2.5 mg, 5 mg, and 7.5 mg, respectively. Group number three tablets contain the alkylsaccharide designated B3, which is sucrose monododecanoate, in the amounts of 5 mg, 10 mg, and 20 mg, respectively.

[16] = aqueous liquid with SDS and an organic acid; cited from earlier work
food intake = settings: injection, on average; cited from earlier work
mucociliary surfaces = settings: far below concentrations used in intranasal formulations; cited from earlier work

## CN(C)CCOC(c1ccccc1)c1ccccc1 [Diphenhydramine]
[1]
  onset of action: more rapid onset of action

## CCCCCCCCCCCCCCO[C@@H]1O[C@H](CO)[C@@H](O[C@H]2O[C@H](CO)[C@@H](O)[C@H](O)[C@H]2O)[C@H](O)[C@H]1O [Tetradecyl Maltoside, n-tetradecyl-4-O-α-D-glucopyranosyl-β-D-glucopyranoside]
[2]
  growth from initial count: No growth
[3]; ATCC6538, 336 h
  log reduction at 0.2 %: ≥ 5
[3]; ATCC6538, 672 h
  log reduction at 0.2 %: ≥ 5
[4]; 0.2%, day 28
  growth from initial count: No growth
[4]; Aspergillus niger, ATCC16404, 336 h
  log reduction at 0.2 %: 0.5
[5]; ATCC10231, 336 h
  log reduction at 0.2 %: 3
[5]; ATCC10231, 672 h
  log reduction at 0.2 %: ≥ 5.4
Blood glucose [6]; 0.5% enhancer with 0.2% insulin eye drops
  effect on blood glucose / ocular insulin absorption: effective as absorption enhancers
Blood glucose [6]; […] enhancer with insulin eye drops
  effect on ocular insulin absorption: effective as absorption enhancers
Blood glucose [6]; alkylmaltosides with insulin eye drops
  effect on ocular insulin absorption (alkyl chain length comparison): more effective
Human nasal epithelium; […] in OTC nasal saline, daily, 33 days
  irritation of the nasal mucosa: no observable irritation of the nasal mucosa
Blood glucose [7]; 0 min, insulin eye drops with […]
  Blood Glucose: 322 mg/dL
Blood glucose [7]; 0.2% insulin eye drops with […] TDM
  effect on blood glucose: prompt and prominent drop in blood glucose levels
Blood glucose [7]; 15 min, insulin eye drops with […]
  Blood Glucose: 335 mg/dL
Blood glucose [7]; 30 min, insulin eye drops with […]
  Blood Glucose: 276 mg/dL
Blood glucose [7]; 45 min, insulin eye drops with […]
  Blood Glucose: 221 mg/dL
Blood glucose [7]; 60 min, insulin eye drops with […]
  Blood Glucose: 212 mg/dL
Blood glucose [7]; 75 min, insulin eye drops with […]
  Blood Glucose: 167 mg/dL
Blood glucose [7]; 90 min, insulin eye drops with […]
  Blood Glucose: 174 mg/dL
Blood glucose [7]; 120 min, insulin eye drops with […]
  Blood Glucose: 208 mg/dL
Blood glucose [7]; 135 min, after insulin nose drops with 0.5%
  Blood Glucose: 129 mg/dL
Blood glucose [7]; 150 min, after insulin nose drops with 0.5%
  Blood Glucose: 74 mg/dL
Blood glucose [7]; 165 min, after insulin nose drops with 0.5%
  Blood Glucose: 76 mg/dL
Blood glucose [7]; 180 min, after insulin nose drops with 0.5%
  Blood Glucose: 68 mg/dL
Blood glucose [7]; […], insulin eye drops with […]
  Blood Glucose: 167 mg/dL

## Cc1cc2c(s1)Nc1ccccc1N=C2N1CCN(C)CC1 [olanzapine]
clinical; 10 mg
  Tmax: 0.25 to 0.75 h
clinical; po
  Tmax: ~6 h
  hepatic extraction ratio: ~0.4
[8]
  first-pass effect metabolism: substantially reduced first-pass effect metabolism
[9]
  time to peak concentrations: approximately 6 hours

## O=C(c1ccc(OCCN2CCCCC2)cc1)c1c(-c2ccc(O)cc2)sc2cc(O)ccc12 [raloxifene]
[10]; fast-dispersing tablet 10 mg or less, 0.5% to 5% dodecyl maltoside, buccal
  circulating inactive raloxifene glucuronide: less circulating inactive raloxifene glucuronide
[10]; human, in vivo, fast-dispersing 60 mg tablet (without alkylsaccharide), read-out: absolute bioavailability
  bioavailability: ~2%
[11]
  water solubility: approx. 0.25 mg/L

## CC1(C)[C@@H](O[C@@H]2OC[C@H](O[C@@H]3OC[C@@H](O)[C@H](O)[C@H]3O)[C@H](O[C@H]3O[C@H](CO)[C@@H](O)[C@H](O)[C@H]3O)[C@H]2O[C@@H]2O[C@H](CO)[C@@H](O)[C@H](O)[C@H]2O[C@H]2O[C@H](CO)[C@@H](O)[C@H](O)[C@H]2O)CC[C@]2(C)[C@H]3CCC45OCC6(CC[C@@](C)(C=O)C[C@@H]64)[C@H](O)C[C@@]5(C)[C@]3(C)CC[C@@H]12 (some centres unmarked) [saponin, reference compound]
Blood glucose [12]
  effect on ocular glucagon absorption / blood D-glucose: effective; also recorded: rises significantly
Blood glucose [13]
  stimulation of insulin absorption from the eye: stimulated

## CCCCCCCCCCCC(=O)OC[C@H]1O[C@H](O[C@]2(CO)O[C@H](CO)[C@@H](O)[C@@H]2O)[C@H](O)[C@@H](O)[C@@H]1O [sucrose dodecanoate, sucrose monododecanoate]
[14]; 70 kilogram person
  amount consumable without observable adverse effect: 1400-2100 grams per day
[14]; about 1% of the NOAEL
  acceptable daily intake for humans: 14-21 grams per day
[14]; in vivo
  NOAEL: 20-30 grams/kilogram/day
[15]
  increase of oral bioavailability of phenylephrine: up to 50%
Human nasal epithelium; 47 days
  irritation of nasal epithelium: no observable irritation was detected

## Calcitonin: calcitonin
[16]
  stability: at least 6 months

## PYY: gut hormone fragment peptide PYY3-36
Food intake
  reduction of food eaten: 30%

## benzalkonium chloride
Mucociliary surfaces
  disruption of mucociliary surfaces: significant disruption of the mucociliary surfaces
